From patent US20080113926A1, “9A-Carbamoyl-Y-Aminopropyl- And 9A-Thiocabamoyl-Y-Aminopropyl-Azalides With Antimalarial Activity” (priority 2005, published 2008)
Values after ≈ are worked out from the molar mass of the structure shown.

Experiments:
[1] = tested on: Plasmodium falciparum TM91C235; assay: In vitro antimalarial [3H]-hypoxanthine incorporation serial dilution assay, TM91C235; assay type: cell-based; settings: Plasmodium falciparum; P. falciparum TM91C235, parasites exposed for 72 hours
[2] = tested on: Plasmodium falciparum clone CDC/Sierra Leone I (D-6); assay: In vitro antimalarial [3H]-hypoxanthine incorporation serial dilution assay, D6; assay type: cell-based; settings: Plasmodium falciparum; P. falciparum D6, parasites exposed for 72 hours
Text: (§1) The in vitro screens for intrinsic antimalarial activity were based on modifications of the procedures described by Desjardins R E, Canfield C J, Haynes J D, Chulay J D. (Quantitative assessment of antimalarial activity in vitro by a semiautomated microdilution technique. Antimicrob Agents Chemother. 1979 December; 16(6):710-8), Chulay J D, Haynes J D, Diggs C L. (Plasmodium falciparum: Assessment of in vitro growth by [3H]hypoxanthine incorporation. Exp. Parasitol. 1983 55:138-146), and Milhous W K, Weatherly N F, Bowdre J H, Desjardins R E. (In vitro activities of and mechanisms of resistance to antifol antimalarial drugs. Antimicrob Agents Chemother. 1985 April; 27(4):525-30). The system was limited to the assessment of the intrinsic activity against the erythrocytic asexual life cycle (blood schizontocides). Two Plasmodium falciparum clones from CDC/Indochina III (W-2) and CDC/Sierra Leone I (D-6) (Oduola A M, Weatherly N F, Bowdre J H, Desjardins R E. Plasmodium falciparum: cloning by single-erythrocyte micromanipulation and heterogeneity in vitro. Exp Parasitol. 1988 66(1):86-95) were used for all assays. TM91C235, a multiple drug resistant isolate from Thailand, was used for the prescreening assay. W-2 is resistant to chloroquine, quinine, and pyrimethamine and susceptible to mefloquine. D-6 tends to be more resistant to mefloquine and susceptible to chloroquine, quinine, and pyrimethamine. All documents cited in this paragraph are incorporated by reference in their entirety.
(§2) All parasites were maintained in continuous long term cultures in RPMI-1640 medium supplemented with 6% washed human A positive (A+) (erythrocytes, 25 mM Hepes, […], and 10% heat inactivated A+ human plasma or ALBUMAX® (lipid-rich bovine serum albumin; Invitrogen, Carlsbad, Calif.). All cultures and assays were conducted at 37° C. under an atmosphere of 5% CO2 and 5% O2, with a balance of N2.
(§3) The prescreening assay uses TM91C235 diluted at a 0.4% parasitemia in a 1% hematocrit in folic acid free and p-aminobenzoic acid free media RPMI-1640 and ALBUMAX®. One mg of the compound is typically dissolved in 100 μl of dimethyl sulfoxide (DMSO). The compound is further diluted in culture medium (FF) with ALBUMAX® for the first initial starting concentration. The rest of the stock drug solution was kept at −70° C. The isolate was preexposed, in duplicate, at three concentrations (25,000 ng/ml, 2,500 ng/ml, and 25 ng/ml) of the test compound for 48 hr in a 96-well microtiter plate (MTP) using the BIOMEK® 2000 automated laboratory workstation. Each MTP contains chloroquine as control to assess the relative activity of the compound and to monitor the response of TM91C235.
(§4) After the preincubation, [^3H]-hypoxanthine was added to each well of the MTP. (The assay relies on the incorporation of radiolabeled hypoxanthine by the parasites, which indicates reproduction, and inhibition of isotope incorporation was attributed to activity of known or candidate antimalarial drugs). After 72 hr of total incubation time, the MTP were frozen to lyse the erythrocytes and parasites. The parasite DNA was recovered by harvesting the lysate onto glass-fiber filter plates using a Packard FilterMate™ Cell Harvester. The radioactivity was counted on a Packard TopCount™ microplate scintillation counter. The results were recorded as counts per minutes (CPM) per well at each drug concentration divided by the arithmetic mean of the CPM from the three untreated infection parasite control wells.
(§5) The serial dilution assay was conducted using the same assay conditions and stock solution of the compound used for the preliminary screen, described above. Both the D-6 and the W-2 clones were used. The compounds were diluted two-fold over 11 different concentration ranges with a starting concentration that was based on the preliminary screen. […]

[3] = tested on: Plasmodium falciparum clone CDC/Indochina III (W-2); assay: In vitro antimalarial [3H]-hypoxanthine incorporation serial dilution assay, W2; assay type: cell-based; settings: Plasmodium falciparum, W2, 72 h, P. falciparum W2, parasites exposed for 72 hours
Text: as §1, §2, §3, §4, §5

Plasmodium falciparum = settings: non-immune patients, as compared to controls; cited from earlier work
Plasmodium vivax = settings: non-immune patients, as compared to controls; cited from earlier work
Plasmodium cynomolgi = settings: rhesus monkey; cited from earlier work
Plasmodium berghei = settings: cited from earlier work
[4] = tested on: Plasmodium yoelii nigeriensis; settings: cited from earlier work

Row | Molecule | IC50 [1] [µg/mL] | IC50 [2] [µg/mL] | IC50 [3] [µg/mL] | prophylactic efficacy for Plasmodium falciparum (Plasmodium falciparum) [%] | prophylactic efficacy for Plasmodium vivax (Plasmodium vivax) [%] | efficacy in monkey model (Plasmodium cynomolgi) | activity in mouse model, Plasmodium berghei (Plasmodium berghei) | activity in mouse model, Plasmodium yoelii nigeriensis [4]
1 | CC[C@H]1OC(=O)[C@H](C)[C@@H](O[C@H]2C[C@@](C)(OC)[C@@H](O)[C@H](C)O2)[C@H](C)[C@@H](O[C@@H]2O[C@H](C)C[C@H](N(C)C)[C@H]2O)[C@](C)(O)C[C@@H](C)CN(C)[C@H](C)[C@@H](O)[C@]1(C)O [azithromycin, reference compound] | 1.62 (≈ 2.16 µM) | 0.797 (≈ 1.06 µM) | 1.76 (≈ 2.35 µM) | 71.6 | 98.9 | active | – | –
2 | midecamycinin | – | – | – | – | – | no efficacy | active | active
